Source: the NIST ThermoML archive (doi:10.1021/je1007197)

Test: xn = mol fraction of the nth substance listed
Settings: Liquid, Hot wire method

CCCCOCCO [2-butoxyethan-1-ol] + O
Settings	thermal conductivity [W/m/K]
304.15 K, 100 kPa, x1 = 0.0478	0.4533
304.15 K, 100 kPa, x1 = 0.1732	0.2813
304.15 K, 100 kPa, x1 = 0.5	0.1837
304.15 K, 100 kPa, x1 = 0.75	0.1655
304.15 K, 10300 kPa, x1 = 0.5	0.1877
304.15 K, 10300 kPa, x1 = 0.75	0.169
304.15 K, 14200 kPa, x1 = 0.0478	0.4568
304.15 K, 15000 kPa, x1 = 0.5	0.189
304.15 K, 19300 kPa, x1 = 0.75	0.1717
304.15 K, 20300 kPa, x1 = 0.1732	0.2857
304.15 K, 26700 kPa, x1 = 0.5	0.1936
304.15 K, 27300 kPa, x1 = 0.0478	0.4622
304.15 K, 30000 kPa, x1 = 0.1732	0.2896
304.15 K, 39500 kPa, x1 = 0.75	0.1771
304.15 K, 41800 kPa, x1 = 0.0478	0.468
304.15 K, 41800 kPa, x1 = 0.5	0.1963
304.15 K, 47200 kPa, x1 = 0.1732	0.2942
304.15 K, 54700 kPa, x1 = 0.5	0.1995
304.15 K, 54700 kPa, x1 = 0.75	0.1812
304.15 K, 55400 kPa, x1 = 0.0478	0.4704
304.15 K, 70100 kPa, x1 = 0.0478	0.4758
304.15 K, 70200 kPa, x1 = 0.1732	0.3008
304.15 K, 70200 kPa, x1 = 0.5	0.2032
304.15 K, 76500 kPa, x1 = 0.75	0.1862
304.15 K, 83900 kPa, x1 = 0.0478	0.478
304.15 K, 84200 kPa, x1 = 0.1732	0.3043
304.15 K, 84200 kPa, x1 = 0.5	0.2066
304.15 K, 91200 kPa, x1 = 0.75	0.19
304.15 K, 98200 kPa, x1 = 0.0478	0.4845
304.15 K, 98200 kPa, x1 = 0.1732	0.3077
304.15 K, 98200 kPa, x1 = 0.75	0.1901
304.15 K, 108700 kPa, x1 = 0.5	0.2127
304.15 K, 110400 kPa, x1 = 0.1732	0.311
304.15 K, 112100 kPa, x1 = 0.0478	0.4875
304.15 K, 112200 kPa, x1 = 0.75	0.1951
304.15 K, 124800 kPa, x1 = 0.5	0.2157
304.15 K, 126000 kPa, x1 = 0.0478	0.4917
304.15 K, 126200 kPa, x1 = 0.1732	0.3147
304.15 K, 127600 kPa, x1 = 0.75	0.1976
304.15 K, 138700 kPa, x1 = 0.0478	0.4958
304.15 K, 140100 kPa, x1 = 0.1732	0.3175
304.15 K, 140100 kPa, x1 = 0.5	0.2189
304.15 K, 140100 kPa, x1 = 0.75	0.2005
304.15 K, 150600 kPa, x1 = 0.1732	0.3195
304.15 K, 150600 kPa, x1 = 0.75	0.2022
317.15 K, 100 kPa, x1 = 0.0478	0.4606
317.15 K, 16400 kPa, x1 = 0.0478	0.4669
317.15 K, 25500 kPa, x1 = 0.0478	0.4697
317.15 K, 41800 kPa, x1 = 0.0478	0.475
317.15 K, 56100 kPa, x1 = 0.0478	0.4789
317.15 K, 70600 kPa, x1 = 0.0478	0.485
317.15 K, 84200 kPa, x1 = 0.0478	0.4875
317.15 K, 98200 kPa, x1 = 0.0478	0.4926
317.15 K, 112200 kPa, x1 = 0.0478	0.4983
317.15 K, 124000 kPa, x1 = 0.0478	0.5008
317.15 K, 141000 kPa, x1 = 0.0478	0.5066
320.9 K, 100 kPa, x1 = 0.0478	0.4774
320.9 K, 2300 kPa, x1 = 0.0478	0.4714
320.9 K, 5000 kPa, x1 = 0.0478	0.4639
320.9 K, 7500 kPa, x1 = 0.0478	0.4677
320.9 K, 10000 kPa, x1 = 0.0478	0.4694
320.9 K, 12500 kPa, x1 = 0.0478	0.4703
320.9 K, 15000 kPa, x1 = 0.0478	0.4705
320.9 K, 19500 kPa, x1 = 0.0478	0.4737
320.9 K, 20000 kPa, x1 = 0.0478	0.4742
320.9 K, 29800 kPa, x1 = 0.0478	0.4774
320.9 K, 52500 kPa, x1 = 0.0478	0.4855
320.9 K, 70200 kPa, x1 = 0.0478	0.4855
320.9 K, 87700 kPa, x1 = 0.0478	0.4986
320.9 K, 105200 kPa, x1 = 0.0478	0.5044
320.9 K, 126200 kPa, x1 = 0.0478	0.5123
321.15 K, 100 kPa, x1 = 0.5	0.1829
321.15 K, 100 kPa, x1 = 0.75	0.1624
321.15 K, 10000 kPa, x1 = 0.5	0.1864
321.15 K, 10000 kPa, x1 = 0.75	0.1656
321.15 K, 19300 kPa, x1 = 0.5	0.1892
321.15 K, 19300 kPa, x1 = 0.75	0.1693
321.15 K, 19700 kPa, x1 = 0.5	0.1896
321.15 K, 28300 kPa, x1 = 0.75	0.1718
321.15 K, 39300 kPa, x1 = 0.75	0.1744
321.15 K, 41800 kPa, x1 = 0.5	0.1959
321.15 K, 56100 kPa, x1 = 0.5	0.2001
321.15 K, 56100 kPa, x1 = 0.75	0.1792
321.15 K, 70200 kPa, x1 = 0.5	0.2034
321.15 K, 71600 kPa, x1 = 0.75	0.1836
321.15 K, 84200 kPa, x1 = 0.5	0.2073
321.15 K, 84200 kPa, x1 = 0.75	0.1871
321.15 K, 96500 kPa, x1 = 0.5	0.2099
321.15 K, 98900 kPa, x1 = 0.75	0.1907
321.15 K, 111500 kPa, x1 = 0.75	0.1929
321.15 K, 112200 kPa, x1 = 0.5	0.2144
321.15 K, 124800 kPa, x1 = 0.75	0.1959
321.15 K, 126900 kPa, x1 = 0.5	0.2172
321.15 K, 141500 kPa, x1 = 0.5	0.2201
321.15 K, 142200 kPa, x1 = 0.75	0.1998
321.15 K, 149900 kPa, x1 = 0.5	0.2213
321.15 K, 150600 kPa, x1 = 0.75	0.2016
322 K, 100 kPa, x1 = 0.0478	0.4932
322 K, 5400 kPa, x1 = 0.0478	0.4886
322 K, 20000 kPa, x1 = 0.0478	0.4931
322 K, 34600 kPa, x1 = 0.0478	0.5006
322 K, 52500 kPa, x1 = 0.0478	0.5069
322 K, 70200 kPa, x1 = 0.0478	0.5149
322 K, 87700 kPa, x1 = 0.0478	0.5221
322 K, 105200 kPa, x1 = 0.0478	0.528
322 K, 119200 kPa, x1 = 0.0478	0.5322
322 K, 133200 kPa, x1 = 0.0478	0.5354
335 K, 100 kPa, x1 = 0.1732	0.2804
335 K, 10000 kPa, x1 = 0.1732	0.2851
335 K, 19000 kPa, x1 = 0.1732	0.2895
335 K, 41800 kPa, x1 = 0.1732	0.2972
335 K, 70200 kPa, x1 = 0.1732	0.306
335 K, 84200 kPa, x1 = 0.1732	0.3077
335 K, 98200 kPa, x1 = 0.1732	0.3111
335 K, 112200 kPa, x1 = 0.1732	0.3153
335 K, 125500 kPa, x1 = 0.1732	0.3205
335 K, 137300 kPa, x1 = 0.1732	0.3218
338.15 K, 100 kPa, x1 = 0.5	0.1796
338.15 K, 100 kPa, x1 = 0.75	0.1594
338.15 K, 10400 kPa, x1 = 0.5	0.1841
338.15 K, 11000 kPa, x1 = 0.75	0.1637
338.15 K, 19000 kPa, x1 = 0.5	0.1866
338.15 K, 19500 kPa, x1 = 0.5	0.1867
338.15 K, 19500 kPa, x1 = 0.75	0.1663
338.15 K, 30700 kPa, x1 = 0.75	0.1702
338.15 K, 39300 kPa, x1 = 0.75	0.1723
338.15 K, 41800 kPa, x1 = 0.5	0.1936
338.15 K, 56100 kPa, x1 = 0.5	0.1986
338.15 K, 56100 kPa, x1 = 0.75	0.1767
338.15 K, 70200 kPa, x1 = 0.5	0.2018
338.15 K, 70200 kPa, x1 = 0.75	0.1812
338.15 K, 80700 kPa, x1 = 0.5	0.2039
338.15 K, 91200 kPa, x1 = 0.75	0.1868
338.15 K, 98200 kPa, x1 = 0.5	0.2083
338.15 K, 105200 kPa, x1 = 0.75	0.1907
338.15 K, 112200 kPa, x1 = 0.5	0.2118
338.15 K, 117800 kPa, x1 = 0.75	0.1924
338.15 K, 126200 kPa, x1 = 0.5	0.2146
338.15 K, 131800 kPa, x1 = 0.75	0.1964
338.15 K, 140800 kPa, x1 = 0.5	0.2183
338.15 K, 147100 kPa, x1 = 0.75	0.1997
346.5 K, 100 kPa, x1 = 0.1732	0.2659
346.5 K, 10000 kPa, x1 = 0.1732	0.2753
346.5 K, 20000 kPa, x1 = 0.1732	0.2796
346.5 K, 29500 kPa, x1 = 0.1732	0.2834
346.5 K, 49000 kPa, x1 = 0.1732	0.2904
346.5 K, 84200 kPa, x1 = 0.1732	0.3009
346.5 K, 98200 kPa, x1 = 0.1732	0.3029
346.5 K, 112200 kPa, x1 = 0.1732	0.3046
346.5 K, 122700 kPa, x1 = 0.1732	0.31
346.5 K, 140100 kPa, x1 = 0.1732	0.3122
346.5 K, 148500 kPa, x1 = 0.1732	0.3128
